Here are results for 19 compounds from patent US8765730B2 (Hoffmann-La Roche Inc, priority 2010, dated 2014).

The assay concerns the target T1, human GPBAR1 receptor (Homo sapiens, UniProt Q8TDU6).
T1 construct: expressed in transfected cells
T1 sequence (Q8TDU6 1-330): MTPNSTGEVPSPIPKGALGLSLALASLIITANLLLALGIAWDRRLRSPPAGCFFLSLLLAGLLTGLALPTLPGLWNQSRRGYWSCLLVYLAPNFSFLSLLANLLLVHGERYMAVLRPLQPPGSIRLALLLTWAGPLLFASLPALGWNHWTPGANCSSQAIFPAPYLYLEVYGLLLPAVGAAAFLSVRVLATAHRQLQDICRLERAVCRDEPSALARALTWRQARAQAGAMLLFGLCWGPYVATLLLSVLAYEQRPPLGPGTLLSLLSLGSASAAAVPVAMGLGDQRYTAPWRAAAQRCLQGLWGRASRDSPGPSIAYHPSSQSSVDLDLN
The assay can be described thus: functional cAMP assay in CHO-dhfr(minus) cells expressing human GPBAR1 receptors. The format is cell-based. The settings on record: human EC50, functional cAMP assay, 30 min at 30° C. The method, boiled down:
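Agonist cAMP read-out: stable GPBAR1 CHO-dhfr− clone, 30 min compound exposure at 30° C following 30 min IBMX (1 mM) preincubation in Krebs Ringer bicarbonate. Time-resolved energy-transfer detection gives EC50; parental CHO cells serve as counter-screen.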

On to `Cn1cc(/C(CC(c2ccc(-c3ccc(C(=O)O)c(F)c3)cc2)c2ccc(Cl)cc2Cl)=N/O)ccc1=O` (single isomer, unassigned) [Example 474, 4′-[(−)-1-(2,4-Dichloro-phenyl)-3-[(E)-hydroxyimino]-3-(1-methyl-6-oxo-1,6-dihydro-pyridin-3-yl)-propyl]-3-fluoro-biphenyl-4-carboxylic acid], for which a half-maximal response (EC50) required 0.043 µM.
The same measure for `Cn1cc(/C(CC(c2ccc(-c3ccc(C(=O)O)c(F)c3)cc2)c2ccc(Cl)cc2Cl)=N/O)ccc1=O` (single isomer, unassigned) [Example 475, 4′-[(+)-1-(2,4-dichloro-phenyl)-3-[(E)-hydroxyimino]-3-(1-methyl-6-oxo-1,6-dihydro-pyridin-3-yl)-propyl]-3-fluoro-biphenyl-4-carboxylic acid]: 0.166 µM; for `Cc1cc(C(=O)O)ccc1-c1ccc(C(C/C(=N\O)c2ccc(=O)n(C)c2)c2ccc(Cl)cc2Cl)cc1` (single isomer, unassigned) [Example 477, 4′-[(−)-1-(2,4-Dichloro-phenyl)-3-[(E)-hydroxyimino]-3-(1-methyl-6-oxo-1,6-dihydro-pyridin-3-yl)-propyl]-2-methyl-biphenyl-4-carboxylic acid]: 0.111 µM; for `Cc1cc(C(=O)O)ccc1-c1ccc(C(C/C(=N\O)c2ccc(=O)n(C)c2)c2ccc(Cl)cc2Cl)cc1` (single isomer, unassigned) [Example 478, 4′-[(+)-1-(2,4-dichloro-phenyl)-3-[(E)-hydroxyimino]-3-(1-methyl-6-oxo-1,6-dihydro-pyridin-3-yl)-propyl]-2-methyl-biphenyl-4-carboxylic acid]: 0.375 µM.
`Cc1ccccc1C(C/C(=N\O)c1ccncc1)c1ccc(-c2cncnc2)cc1` (single isomer, unassigned; (+)) [Example 35, (+)-(E)-1-Pyridin-4-yl-3-(4-pyrimidin-5-yl-phenyl)-3-o-tolyl-propan-1-one oxime]: the 50% effective concentration (EC50) (usually the concentration giving half of the maximal effect) was found to be 0.067 µM.
For `Cc1ccccc1C(C/C(=N/O)c1ccncc1)c1ccc(-c2cncnc2)cc1` (single isomer, unassigned; (+)) [Example 38, (+)-(Z)-1-pyridin-4-yl-3-(4-pyrimidin-5-yl-phenyl)-3-o-tolyl-propan-1-one oxime], the half-maximal effective concentration (EC50) turned out to be 7.65 µM.
Regarding `Cc1ccccc1C(C/C(=N\O)c1cc(Cl)ccc1Cl)c1ccc(Br)cc1` (single isomer, unassigned; (+)) [Example 50, (+)-(E)-3-(4-Bromo-phenyl)-1-(2,5-dichloro-phenyl)-3-o-tolyl-propan-1-one oxime], a half-maximal effect (EC50) was put at 0.769 µM.
`Cn1cc(/C(CC(c2ccc(Br)cc2)c2ccc(Cl)cc2F)=N/O)ccc1=O` (single isomer, unassigned; (+)) [Example 239, (+)-5-{3-(4-Bromo-phenyl)-3-(4-chloro-2-fluoro-phenyl)-1-[(E)-hydroxyimino]-propyl}-1-methyl-1H-pyridin-2-one] came in with an EC50 of 0.024 µM.
The figure for `Cn1cc(/C(CC(c2ccc(-c3ccc(C(=O)O)cc3)cc2)c2ccc(Cl)cc2F)=N/O)ccc1=O` (single isomer, unassigned; (+)) [Example 241, (+)-4′-[1-(4-Chloro-2-fluoro-phenyl)-3-[(E)-hydroxyimino]-3-(1-methyl-6-oxo-1,6-dihydro-pyridin-3-yl)-propyl]-biphenyl-4-carboxylic acid] is 0.17 µM.
`COC(=O)CNC(=O)c1ccc(-c2ccc(C(C/C(=N\O)c3ccc(=O)n(C)c3)c3ccc(Cl)cc3C)cc2)cc1` (single isomer, unassigned; (+)) [Example 254, (+)-({4′-[1-(4-chloro-2-methyl-phenyl)-3-[(E)-hydroxyimino]-3-(1-methyl-6-oxo-1,6-dihydro-pyridin-3-yl)-propyl]-biphenyl-4-carbonyl}-amino)-acetic acid methyl ester] registered an EC50 of 0.06 µM.
The figure for `Cc1cc(Cl)ccc1C(C/C(=N\O)c1ccc(=O)n(C)c1)c1ccc(-c2ccc(C(=O)NCC(=O)O)cc2)cc1` (single isomer, unassigned; (+)) [Example 256, (+)-({4′-[1-(4-Chloro-2-methyl-phenyl)-3-[(E)-hydroxyimino]-3-(1-methyl-6-oxo-1,6-dihydro-pyridin-3-yl)-propyl]-biphenyl-4-carbonyl}-amino)-acetic acid] is 0.01 µM; for `Cc1cc(Cl)ccc1C(C/C(=N\O)c1ccc(=O)n(C)c1)c1ccc(S(C)(=O)=O)cc1` (single isomer, unassigned; (+)) [Example 334, (+)-(E)-5-(3-(4-chloro-2-methylphenyl)-1-(hydroxyimino)-3-(4-(methylsulfonyl)phenyl)-propyl)-1-methylpyridin-2(1H)-one] it is 0.068 µM; for `Cc1ccccc1C(C/C(=N\O)c1ccncc1)c1ccc(-c2cncnc2)cc1` (single isomer, unassigned; (-)) [Example 36, (−)-(E)-1-pyridin-4-yl-3-(4-pyrimidin-5-yl-phenyl)-3-o-tolyl-propan-1-one oxime] it is 0.011 µM.
The same measure for `Cc1ccccc1C(C/C(=N/O)c1ccncc1)c1ccc(-c2cncnc2)cc1` (single isomer, unassigned; (-)) [Example 37, (−)-(Z)-1-pyridin-4-yl-3-(4-pyrimidin-5-yl-phenyl)-3-o-tolyl-propan-1-one oxime]: 2.2 µM; for `Cc1ccccc1C(C/C(=N\O)c1cc(Cl)ccc1Cl)c1ccc(Br)cc1` (single isomer, unassigned; (-)) [Example 51, (−)-(E)-3-(4-bromo-phenyl)-1-(2,5-dichloro-phenyl)-3-o-tolyl-propan-1-one oxime]: 0.933 µM.
The same measure for `Cn1cc(/C(CC(c2ccc(Br)cc2)c2ccc(Cl)cc2F)=N/O)ccc1=O` (single isomer, unassigned; (-)) [Example 240, (−)-5-{3-(4-Bromo-phenyl)-3-(4-chloro-2-fluoro-phenyl)-1-[(E)-hydroxyimino]-propyl}-1-methyl-1H-pyridin-2-one]: 0.031 µM; for `Cn1cc(/C(CC(c2ccc(-c3ccc(C(=O)O)cc3)cc2)c2ccc(Cl)cc2F)=N/O)ccc1=O` (single isomer, unassigned; (-)) [Example 242, (−)-4′-[1-(4-Chloro-2-fluoro-phenyl)-3-[(E)-hydroxyimino]-3-(1-methyl-6-oxo-1,6-dihydro-pyridin-3-yl)-propyl]-biphenyl-4-carboxylic acid]: 0.37 µM; for `COC(=O)CNC(=O)c1ccc(-c2ccc(C(C/C(=N\O)c3ccc(=O)n(C)c3)c3ccc(Cl)cc3C)cc2)cc1` (single isomer, unassigned; (-)) [Example 253, (−)-({4′-[1-(4-Chloro-2-methyl-phenyl)-3-[(E)-hydroxyimino]-3-(1-methyl-6-oxo-1,6-dihydro-pyridin-3-yl)-propyl]-biphenyl-4-carbonyl}-amino)-acetic acid methyl ester]: 0.14 µM.
With `Cc1cc(Cl)ccc1C(C/C(=N\O)c1ccc(=O)n(C)c1)c1ccc(-c2ccc(C(=O)NCC(=O)O)cc2)cc1` (single isomer, unassigned; (-)) [Example 255, (−)-({4′-[1-(4-Chloro-2-methyl-phenyl)-3-[(E)-hydroxyimino]-3-(1-methyl-6-oxo-1,6-dihydro-pyridin-3-yl)-propyl]-biphenyl-4-carbonyl}-amino)-acetic acid], a half-maximal effect (EC50) was put at 0.03 µM.
